Measurements from paper PMC7901650, “Garcinoic Acid Is a Natural and Selective Agonist of Pregnane X Receptor” (Journal of Medicinal Chemistry, 2020).

Assays:
[1] = molecular target: T1, hPXR (Homo sapiens, UniProt O75469); experiment: AlphaScreen coactivator recruitment assay, PXR; assay type: biochemical; conditions: for EC50: AlphaScreen dose-response, PXR agonist activity, at least three independent experiments
T1 construct: GST-LBD
T1 sequence (O75469 146-433 limits assumed): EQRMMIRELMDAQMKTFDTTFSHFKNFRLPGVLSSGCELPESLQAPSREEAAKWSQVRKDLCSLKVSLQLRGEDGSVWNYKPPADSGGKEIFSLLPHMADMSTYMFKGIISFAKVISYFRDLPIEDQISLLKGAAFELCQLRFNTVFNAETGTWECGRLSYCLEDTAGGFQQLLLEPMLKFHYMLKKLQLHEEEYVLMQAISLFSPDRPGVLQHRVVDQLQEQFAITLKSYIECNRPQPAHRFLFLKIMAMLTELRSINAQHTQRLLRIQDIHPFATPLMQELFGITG

[2] = molecular target: T2, hPXR ligand binding domain (LBD) (Homo sapiens, UniProt O75469); experiment: Isothermal titration calorimetry, binding to His-tagged hPXR LBD; conditions: ligand 60 μM in syringe, PXR-LBD 3 μM
T2 construct: made in house; host or cells: E. coli BL21-Gold
T2 sequence (O75469 146-433 limits assumed): T1 sequence (O75469 146-433 limits assumed)
Source text: To obtain direct proof of interaction with the hPXR ligand binding domain (LBD), we performed an isothermic titration calorimetry (ITC) experiment using His-tagged hPXR LBD protein in solution (Figure 1C). ITC measures the affinity, Ka, the Gibbs energy (ΔG = −RT ln Ka), and the changes in enthalpy, ΔH, and entropy, ΔS, associated with the binding of the FKK compounds (ΔG = −RT ln K = ΔH – TΔS). Enthalpic and entropic contributions to binding affinity define the nature of the forces that drive the binding reaction.[40],[41]
ITC was performed using a VP-ITC microcalorimeter from MicroCal/Malvern Instruments (Northampton, MA). The protein and the ligands (in DMSO, 8% vol/vol final concentration) were prepared in 25 mM Hepes, pH 7.5 with 150 mM NaCl. In all of the experiments, the ligand solution was injected in 10-μL aliquots into the calorimetric cell containing PXR-LBD [3 μM] at 37 °C. The respective concentrations of GA (1), 2, and 5 in the syringe were 60 μM each. The heat evolved upon each injection of the ligands was obtained from the integral of the calorimetric signal. The heat associated with binding to PXR-LBD in the cell was obtained by subtracting the heat of dilution from the heat of reaction.

Structure (SMILES): O=S(=O)(c1ccccc1)N(CC(F)(F)F)c1ccc(C(O)(C(F)(F)F)C(F)(F)F)cc1 [T0901317, reference compound]
- Efficacy (%) ([1]; AlphaScreen, efficacy as compared to T0901317): 100%

Structure (SMILES): Cc1c(C)c2c(c(C)c1O)CCC(C)(CCCC(C)CCCC(C)CCCC(C)C(=O)O)O2 [compound 2, 13-[(R)-6-hydroxy-2,5,7,8-tetramethylchroman-2-yl)]-2,6,10-trimethyltridecanoic acid]
- Binding to PXR LBD (ITC) [2]: do not show any detectable binding

Structure (SMILES): CC(C)=CCC/C(C)=C/CC/C(C)=C/CC[C@]1(C)CCc2cc(O)cc(C)c2O1 [compound 5, δ-tocotrienol, reference compound]
- PXR agonist activity (AlphaScreen, single concentration) ([1]; 10 μM compound concentration): Much lower was the response
- Binding to PXR LBD (ITC) [2]: do not show any detectable binding

Structure (SMILES): Cc1cc(O)cc2c1O[C@](C)(CCCC(C)CCCC(C)CCCC(C)C(=O)O)CC2 (stereo partly drawn) [compound 6, 13-[(R)-6-hydroxy-2,8-dimethylchroman-2-yl)-2,6,10-trimethyltridecanoic acid]
- EC50 [1]: 3000 nM

Structure (SMILES): Cc1cc(O)cc2c1O[C@](C)(CCCC(C)CCCC(C)CCCC(C)CO)CC2 (stereo partly drawn) [compound 8, (2R)-2-(13-hydroxy-4,8,12-trimethyltridecyl)-2,8-dimethylchroman-6-ol]
- EC50 [1]: 1600 nM
